Laboratory results taken from patent publication US10975119B2, “Selective cysteine protease inhibitors and uses thereof” (Genesis Technologies Limited, priority 2011, dated 2021).
pIC50: −log10 of the molar value. Read-outs that look alike come from different tables or passages of the source.

Columns and labels:
Type in all cases: biochemical
Caspase-1 = biological target: T1, Caspase-1 (Homo sapiens, UniProt P29466); test: Caspase-1 inhibitor screening assay (BioVision kit, YVAD-AFC); details: read-out: IC50 Casp1
T1 construct: mixing the compounds with the respective active caspases; purchased BioVision K151-100
T1 sequence (P29466 120-297 limits assumed): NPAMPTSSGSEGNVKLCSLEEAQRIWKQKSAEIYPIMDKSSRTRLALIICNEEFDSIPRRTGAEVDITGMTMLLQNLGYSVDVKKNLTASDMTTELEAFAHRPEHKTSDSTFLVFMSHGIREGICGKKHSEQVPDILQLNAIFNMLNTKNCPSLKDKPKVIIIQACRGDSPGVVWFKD
T1 sequence (P29466 317-404 limits assumed): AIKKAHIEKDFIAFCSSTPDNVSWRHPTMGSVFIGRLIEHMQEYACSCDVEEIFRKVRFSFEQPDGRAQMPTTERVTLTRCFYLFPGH
Method: (§1) The efficacy of an array of compounds as an inhibitor of the activity of Caspases 1 through 10 were assessed by using the respective Caspase Inhibitor Drug Screening Kits (Caspase-1 Catalog #: K151-100, Caspase-2 Catalog #: K152-100, Caspase-3 Catalog #: K153-100, Caspase-4 Catalog #: K154-100, Caspase-5 Catalog #: K155-100, Caspase-6 Catalog #: K156-100, Caspase-7 Catalog #: K157-100, Caspase-8 Catalog #: K158-100, Caspase-9 Catalog #: K159-100, Caspase-10 Catalog #: K160-100, BioVision) following the instructions of the manufacturer. […] Active caspases cleaved their respective synthetic substrates to release free AFC, which was then quantified by fluorometry.
(§2) Briefly, the compounds were first tested at 2 concentrations (10 uM and 100 uM final) to determine if there is a hit. […] Each condition was tested in duplicates. […] For some samples, a smaller range of concentrations was tested depending on the % Inhibition results at 10 uM and 100 uM. Results were summarized in Tables 2, 3, and 4 herein after. Table 2 represents the IC50 values (uM) of the test compounds as inhibitors of the activity of the various caspases.
(§3) (*) RFU (no inhibitor control)—RFU (compound at a specific concentration)
(§4) RFU (no inhibitor control)

Caspase-10 = biological target: T2, Caspase-10 (Homo sapiens, UniProt Q92851); test: Caspase-10 inhibitor screening assay (BioVision kit, AEVD-AFC); details: read-out: IC50 Casp10
T2 construct: mixing the compounds with the respective active caspases; purchased BioVision K160-100
T2 sequence (Q92851 220-415 limits assumed): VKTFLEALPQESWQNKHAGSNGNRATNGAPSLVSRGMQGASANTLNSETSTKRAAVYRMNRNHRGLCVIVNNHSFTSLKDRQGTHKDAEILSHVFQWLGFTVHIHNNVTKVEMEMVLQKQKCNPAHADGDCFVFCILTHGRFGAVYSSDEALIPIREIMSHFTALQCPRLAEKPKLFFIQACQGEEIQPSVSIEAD
T2 sequence (Q92851 416-521 limits assumed): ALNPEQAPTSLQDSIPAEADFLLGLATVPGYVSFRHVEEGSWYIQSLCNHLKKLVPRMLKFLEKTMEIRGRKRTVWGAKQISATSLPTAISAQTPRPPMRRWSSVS
Method: as §1, §2, §3, §4

Caspase-5 = biological target: T3, Caspase-5 (Homo sapiens, UniProt P51878); test: Caspase-5 inhibitor screening assay (BioVision kit, WEHD-AFC); details: read-out: IC50 Casp5
T3 construct: mixing the compounds with the respective active caspases; purchased BioVision K155-100
T3 sequence (P51878 137-327 limits assumed): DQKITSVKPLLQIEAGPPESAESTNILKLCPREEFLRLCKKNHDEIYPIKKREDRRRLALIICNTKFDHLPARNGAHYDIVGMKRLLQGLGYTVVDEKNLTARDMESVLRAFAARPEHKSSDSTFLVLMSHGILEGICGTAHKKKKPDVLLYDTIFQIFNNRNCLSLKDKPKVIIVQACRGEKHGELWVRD
T3 sequence (P51878 347-434 limits assumed): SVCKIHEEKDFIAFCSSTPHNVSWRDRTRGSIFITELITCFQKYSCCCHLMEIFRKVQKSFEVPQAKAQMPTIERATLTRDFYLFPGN
Method: as §1, §2, §3, §4

Caspase-3 = biological target: T4, Caspase-3 (Homo sapiens, UniProt P42574); test: Caspase-3 inhibitor screening assay (BioVision kit, DEVD-AFC); details: read-out: IC50 Casp3
T4 construct: mixing the compounds with the respective active caspases; purchased BioVision K153-100
T4 sequence (P42574 29-175 limits assumed): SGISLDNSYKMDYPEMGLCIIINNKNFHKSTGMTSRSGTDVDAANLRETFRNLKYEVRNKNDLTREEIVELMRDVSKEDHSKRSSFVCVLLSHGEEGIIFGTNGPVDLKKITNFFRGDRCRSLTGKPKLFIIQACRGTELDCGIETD
T4 sequence (P42574 176-277 limits assumed): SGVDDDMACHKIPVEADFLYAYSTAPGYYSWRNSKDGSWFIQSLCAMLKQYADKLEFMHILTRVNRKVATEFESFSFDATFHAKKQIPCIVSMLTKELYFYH
Method: as §1, §2, §3, §4

Caspase-7 = biological target: T5, Caspase-7 (Homo sapiens, UniProt P55210); test: Caspase-7 inhibitor screening assay (BioVision kit, DEVD-AFC); details: read-out: IC50 Casp7
T5 construct: mixing the compounds with the respective active caspases; purchased BioVision K157-100
T5 sequence (P55210 24-198 limits assumed): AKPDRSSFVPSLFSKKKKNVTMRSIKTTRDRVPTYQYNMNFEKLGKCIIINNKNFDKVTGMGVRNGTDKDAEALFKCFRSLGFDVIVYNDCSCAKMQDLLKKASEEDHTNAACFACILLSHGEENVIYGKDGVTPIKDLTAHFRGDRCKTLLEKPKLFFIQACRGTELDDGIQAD
T5 sequence (P55210 207-303 limits assumed): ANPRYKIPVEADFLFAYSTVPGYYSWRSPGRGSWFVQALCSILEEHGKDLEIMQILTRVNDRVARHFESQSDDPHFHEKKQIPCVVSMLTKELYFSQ
Method: as §1, §2, §3, §4

Caspase-4 = biological target: T6, Caspase-4 (Homo sapiens, UniProt P49662); test: Caspase-4 inhibitor screening assay (BioVision kit, LEVD-AFC); details: read-out: IC50 Casp4
T6 construct: mixing the compounds with the respective active caspases; purchased BioVision K154-100
T6 sequence (P49662 81-270 limits assumed): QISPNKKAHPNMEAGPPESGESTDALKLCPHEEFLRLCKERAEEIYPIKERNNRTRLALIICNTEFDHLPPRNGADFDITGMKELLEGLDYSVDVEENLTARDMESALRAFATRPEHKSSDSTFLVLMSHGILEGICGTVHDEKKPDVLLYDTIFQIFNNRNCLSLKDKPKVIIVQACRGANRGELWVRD
T6 sequence (P49662 290-377 limits assumed): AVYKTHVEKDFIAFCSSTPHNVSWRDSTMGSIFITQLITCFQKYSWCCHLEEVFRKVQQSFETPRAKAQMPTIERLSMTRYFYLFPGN
Method: as §1, §2, §3, §4

Caspase-6 = biological target: T7, Caspase-6 (Homo sapiens, UniProt P55212); test: Caspase-6 inhibitor screening assay (BioVision kit, VEID-AFC)
T7 construct: mixing the compounds with the respective active caspases; purchased BioVision K156-100
T7 sequence (P55212 24-179 limits assumed): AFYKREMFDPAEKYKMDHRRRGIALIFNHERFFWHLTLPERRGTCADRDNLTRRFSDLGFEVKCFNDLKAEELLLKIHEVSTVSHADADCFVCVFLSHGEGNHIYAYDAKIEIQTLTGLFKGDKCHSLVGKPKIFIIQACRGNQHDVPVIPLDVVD
T7 sequence (P55212 194-293 limits assumed): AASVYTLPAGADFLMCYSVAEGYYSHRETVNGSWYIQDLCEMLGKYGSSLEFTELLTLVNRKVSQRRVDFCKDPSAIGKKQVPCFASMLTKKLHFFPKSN
Method: as §1, §2, §3, §4

Caspase-8 = biological target: T8, Caspase-8 (Homo sapiens, UniProt Q14790); test: Caspase-8 inhibitor screening assay (BioVision kit, IETD-AFC); details: read-out: IC50 Casp8
T8 construct: mixing the compounds with the respective active caspases; purchased BioVision K158-100
T8 sequence (Q14790 217-374 limits assumed): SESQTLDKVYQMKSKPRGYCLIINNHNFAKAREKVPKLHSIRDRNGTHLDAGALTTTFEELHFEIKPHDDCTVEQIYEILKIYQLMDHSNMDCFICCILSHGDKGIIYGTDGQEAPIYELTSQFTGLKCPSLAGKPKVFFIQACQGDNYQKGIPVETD
T8 sequence (Q14790 385-479 limits assumed): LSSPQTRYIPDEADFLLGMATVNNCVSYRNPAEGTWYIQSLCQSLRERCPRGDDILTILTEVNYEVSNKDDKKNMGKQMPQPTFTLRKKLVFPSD
Method: as §1, §2, §3, §4

Caspase-9 = biological target: T9, Caspase-9 (Homo sapiens, UniProt P55211); test: Caspase-9 inhibitor screening assay (BioVision kit, LEHD-AFC); details: read-out: IC50 Casp9
T9 construct: purchased BioVision K159-100
T9 sequence (P55211 1-315 limits assumed): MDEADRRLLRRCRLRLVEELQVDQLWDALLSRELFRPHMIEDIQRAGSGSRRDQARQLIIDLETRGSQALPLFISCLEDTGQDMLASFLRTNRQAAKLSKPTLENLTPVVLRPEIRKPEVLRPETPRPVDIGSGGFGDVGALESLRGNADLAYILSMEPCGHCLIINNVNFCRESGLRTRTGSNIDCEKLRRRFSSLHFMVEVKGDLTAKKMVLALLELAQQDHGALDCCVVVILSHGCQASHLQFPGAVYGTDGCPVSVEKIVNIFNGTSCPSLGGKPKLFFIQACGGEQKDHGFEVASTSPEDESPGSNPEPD
T9 sequence (P55211 331-416 limits assumed): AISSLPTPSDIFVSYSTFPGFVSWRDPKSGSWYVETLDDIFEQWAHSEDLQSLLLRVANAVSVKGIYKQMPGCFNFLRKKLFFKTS
Method: as §1, §2, §3, §4

Row | SMILES | pIC50 (Caspase-1) | pIC50 (Caspase-10) | pIC50 (Caspase-5) | pIC50 (Caspase-3) | pIC50 (Caspase-7) | pIC50 (Caspase-4) | pIC50 (Caspase-6; read-out: IC50 Casp6) | pIC50 (Caspase-8) | pIC50 (Caspase-9) | pIC50 (Caspase-6; read-out: inhibition (IC50) against Caspase-6)
1 | CCOC(=O)/C(Cl)=C/[C@H](CC(=O)O)NC(=O)[C@H]1CCCN1C(=O)[C@H](NC(=O)[C@H](CC(=O)O)NC(=O)OCc1ccccc1)C(C)(C)C [Compound 57, Z-Asp-t-Leu-Pro-Asp αchlorovinyl Ethyl Vinyl Ester] | 5.10 | 7.30 | 4.80 | 5.90 | 6.82 | < 4.00 | < 4.00 | – | – | –
2 | CCOC(=O)/C(Cl)=C/[C@H](CC(=O)O)NC(=O)[C@H]1CCCN1C(=O)[C@@H](NC(=O)c1ccc(N)c(Cl)c1)C(C)(C)C [Compound 117, 4-amino-3-chlorobenzene carbonyl-t-Leu-Pro-Asp αchlorovinyl Ethyl Vinyl Ester] | 6.96 | – | 6.05 | < 4.00 | < 4.00 | 7.15 | < 4.00 | 5.85 | – | –
3 | CCC(C)[C@H](NC(=O)[C@H](CCC(=O)O)NC(=O)[C@@H](NC(=O)OCc1ccccc1)C(C)C)C(=O)N[C@H](/C=C(\Cl)S(C)(=O)=O)CC(=O)O (stereo partly drawn) [Compound 123, Z-Val-Glu-Ile-Asp-achlorovinyl methyl vinyl sulfone] | 5.41 | 6.72 | 5.38 | 5.87 | – | 5.74 | – | 6.28 | 5.19 | 6.64
